Assay results reported in patent US20230372481A1 (priority 2020, published 2023).
“And” between values parts separate entries of the source, which are not always exact repeats. Equal values may be shown once. Read-outs that look alike come from different tables or passages of the source.

Legend:
[1] = system: CD45RA− memory T cells;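 on Fold change increase, % CD45RA−: memory T cells from a convalescent donor cultured overnight or 72 h, surface markers read by flow cytometry, fold change versus a parallel culture lacking IL15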;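 on Fold change increase, CD3+ CCR7: memory T cells from a convalescent donor cultured overnight or 72 h, surface markers read by flow cytometry, fold change versus a parallel culture lacking IL15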
Procedure: CD45RA− memory T cells from the convalescent donor where thawed and incubated in Tex MACs media TexMACS Medium (Miltenyi Biotec, Germany) supplemented with 5% AB serum (Sigma-Aldrich, Saint Louis, Missouri, USA) plus 50 ng/ml of IL15 o/n and for 72 hours. After that time the cells were harvested and the phenotypic assay was performed. The same culture without IL15 was run in parallel as a control.
Cell surface staining was performed for 20 minutes at 4 degrees with the following fluorochrome conjugated antibodies titrated to their optimal concentrations: 7AAD (BD Horizon), CD45RA FITC (BD Pharmingen), CD3 viogreen (Miltenyi Biotec), CD4 PECy7 (BD Pharmingen), CD8 APC Cy7 (BD Pharmingen), CD27 APC (BD Pharmingen). For the Treg panel CD25 BV421 (BD Horizon), and CD127 PE-CF594 (BD Horizon), was used. For the activation panel HLA-DR BV 421 (BD Pharmingen), CD69 BV421 (Biolegend), CD25 BV421 (BD Horizon), was used. For the exhaustion panel PD1 AF700 (Biolegend), NKG2D BV421 (Biolegend) was used. For the cytokine panel CD103 BV421 (BD Horizon) and CCR7 PE-CF594 (BD Horizon) was used. An average of 200.000 cells was acquired. Cell acquisition was performed using a FACS Canto. The analysis was performed using FlowJo 9.9.6 (FlowJo LLC).

[2] = system: CD45RA− memory T cells; type: cell-based, human; details: for IFNγ production WITH IL15 X3, CD45RA− / IFNγ production WITH IL15 X3, CD45RA− CD3+ / IFNγ production WITH IL15 X3, CD45RA− CD3+ CD4+ / IFNγ production WITH IL15 X3, CD45RA− CD3+ CD8+ / FOLD INCREASE OF IFNγ PRODUCTION, CD45RA− / FOLD INCREASE OF IFNγ PRODUCTION, CD45RA− CD3+ / FOLD INCREASE OF IFNγ PRODUCTION, CD45RA− CD3+ CD4+ / FOLD INCREASE OF IFNγ PRODUCTION, CD45RA− CD3+ CD8+: three peptivators;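 on Fold change increase, % CD45RA−: memory T cells from a convalescent donor cultured overnight or 72 h, surface markers read by flow cytometry, fold change versus a parallel culture lacking IL15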;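 on Fold change increase, CD3+ CCR7: memory T cells from a convalescent donor cultured overnight or 72 h, surface markers read by flow cytometry, fold change versus a parallel culture lacking IL15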
[3] = system: CD45RA− memory T cells; assay: Phenotypic characterization of CD45RA− memory T cells in the presence of IL-15 (Table 11); type: cell-based, human; details: for Fold change CD127lowCD25+ (Treg): CD45RA−CD4+ subset
[4] = IL15 (3 days) 50 ng/ml vs no cytokine
[5] = IL15 (3 days) 50 ng/ml vs no cytokine, listed as IL-15
[6] = IL15 (o.n.) 50 ng/ml vs no cytokine
[7] = DAY 3 (72 hours) with IL-15 50 ng/ml
[8] = DAY 3, with minus without IL-15, three peptivators
[9] = O/N, with minus without IL-15, three peptivators
[10] = CD3+ subset, IL-15 for 72 hours
[11] = CD4+ subset, IL-15 for 72 hours
[12] = CD8+ subset, IL-15 for 72 hours
[13] = IL-15 72 hours vs control with no cytokine
[14] = IL-15 o/n vs control with no cytokine

IL15: cytokine fundamental for memory T cells that induces the activation, the proliferation and the survival of T cells
Fold change increase, % CD45RA− [1, 4]: 1.0 fold
Fold change increase, CD3+ CCR7 [1, 4]: 1 fold and 1.0 fold
Fold change increase, CD3+ CD25+ [1, 4]: 8.5 fold
Fold change increase, CD3+ CD69 BV421 high [1, 4]: 29.6 fold
Fold change increase, CD3+ CD103 [1, 4]: 1.2 fold
Fold change increase, CD3+ HLA-DR+ [1, 4]: 2.6 fold
Fold change increase, CD3+ NKG2A+ [1, 4]: 1.4 fold
Fold change increase, CD3+ PD1 AF700 [1, 4]: 8.7 fold
Fold change increase, CD4+ CCR7 [1, 4]: 1.0 fold
Fold change increase, CD4+ CD25+ [1, 4]: 8.6 fold
Fold change increase, CD4+ CD69 BV421 high [1, 4]: 59.8 fold
Fold change increase, CD4+ CD103 [1, 4]: 1.0 fold
Fold change increase, CD4+ HLA-DR+ [1, 4]: 2.4 fold
Fold change increase, CD4+ NKG2A+ [1, 4]: 0.6 fold
Fold change increase, CD4+ PD1 AF700 [1, 4]: 9.1 fold
Fold change increase, CD8+ CCR7 [1, 4]: 1.4 fold
Fold change increase, CD8+ CD25+ [1, 4]: 36.4 fold
Fold change increase, CD8+ CD69 BV421 high [1, 4]: 5.6 fold
Fold change increase, CD8+ CD103 [1, 4]: 1.4 fold
Fold change increase, CD8+ HLA-DR+ [1, 4]: 1.9 fold
Fold change increase, CD8+ NKG2A+ [1, 4]: 1.2 fold
Fold change increase, CD8+ PD1 AF700 [1, 4]: 6.1 fold
Fold change increase, CD45RA− % CD3+ [1, 4]: 1.0 fold
Fold change increase, CD45RA− % CD4+ [1, 4]: 1.0 fold
Fold change increase, CD45RA− % CD8+ [1, 4]: 1.1 fold
Fold change increase, CD45RA− CD4+ CD27+ (CM) [1, 4]: 1.0 fold
Fold change increase, CD45RA− CD4+ CD27− (EM) [1, 4]: 0.9 fold
Fold change increase, CD45RA− CD4+ CD127lowCD25+ (Treg) [1, 4]: 2.0 fold
Fold change increase, CD45RA− CD8+ CD27+ (CM) [1, 4]: 1.0 fold
Fold change increase, CD45RA− CD8+ CD27− (EM) [1, 4]: 1.0 fold
Fold change increase, CD3+ CCR7 [1, 5]: No modification
Fold change increase, CD3+ CD25+ [1, 5]: 8.6 fold
Fold change increase, % CD45RA− [1, 6]: 1.0 fold
Fold change increase, CD3+ CCR7 [1, 6]: 1.0 fold
Fold change increase, CD3+ CD25+ [1, 6]: 1.5 fold
Fold change increase, CD3+ CD69 BV421 high [1, 6]: 3.2 fold
Fold change increase, CD3+ CD103 [1, 6]: 0.7 fold
Fold change increase, CD3+ HLA-DR+ [1, 6]: 1.2 fold
Fold change increase, CD3+ NKG2A+ [1, 6]: 0.7 fold
Fold change increase, CD3+ PD1 AF700 [1, 6]: 0.7 fold
Fold change increase, CD4+ CCR7 [1, 6]: 1.0 fold
Fold change increase, CD4+ CD25+ [1, 6]: 1.5 fold
Fold change increase, CD4+ CD69 BV421 high [1, 6]: 2.9 fold
Fold change increase, CD4+ CD103 [1, 6]: 0.7 fold
Fold change increase, CD4+ HLA-DR+ [1, 6]: 1.2 fold
Fold change increase, CD4+ NKG2A+ [1, 6]: 1.2 fold
Fold change increase, CD4+ PD1 AF700 [1, 6]: 0.8 fold
Fold change increase, CD8+ CCR7 [1, 6]: 1.5 fold
Fold change increase, CD8+ CD25+ [1, 6]: 4.4 fold
Fold change increase, CD8+ CD69 BV421 high [1, 6]: 2.8 fold
Fold change increase, CD8+ CD103 [1, 6]: 0.9 fold
Fold change increase, CD8+ HLA-DR+ [1, 6]: 1.2 fold
Fold change increase, CD8+ NKG2A+ [1, 6]: 0.8 fold
Fold change increase, CD8+ PD1 AF700 [1, 6]: 1.7 fold
Fold change increase, CD45RA− % CD3+ [1, 6]: 1.0 fold
Fold change increase, CD45RA− % CD4+ [1, 6]: 1.0 fold
Fold change increase, CD45RA− % CD8+ [1, 6]: 0.8 fold
Fold change increase, CD45RA− CD4+ CD27+ (CM) [1, 6]: 1.0 fold
Fold change increase, CD45RA− CD4+ CD27− (EM) [1, 6]: 0.9 fold
Fold change increase, CD45RA− CD4+ CD127lowCD25+ (Treg) [1, 6]: 1.3 fold
Fold change increase, CD45RA− CD8+ CD27+ (CM) [1, 6]: 1.1 fold
Fold change increase, CD45RA− CD8+ CD27− (EM) [1, 6]: 0.9 fold
Fold change increase, CD3+ CCR7 ([1]; IL15 (o.n.) 50 ng/ml vs no cytokine, listed as IL-15): No modification
IFNγ production WITH IL15 X3, CD45RA− [2, 7]: 1.9
IFNγ production WITH IL15 X3, CD45RA− CD3+ [2, 7]: 1.7
IFNγ production WITH IL15 X3, CD45RA− CD3+ CD4+ [2, 7]: 1.5
IFNγ production WITH IL15 X3, CD45RA− CD3+ CD8+ [2, 7]: 2.7
IFNγ production W-WO, CD45RA− [2, 8]: 1.6
IFNγ production W-WO, CD45RA− CD3+ [2, 8]: 1.4
IFNγ production W-WO, CD45RA− CD3+ CD4+ [2, 8]: 1.1
IFNγ production W-WO, CD45RA− CD3+ CD8+ [2, 8]: 2.4
FOLD INCREASE OF IFNγ PRODUCTION, CD45RA− ([2]; DAY 3 with IL-15 vs without): 5.3 fold
FOLD INCREASE OF IFNγ PRODUCTION, CD45RA− CD3+ ([2]; DAY 3 with IL-15 vs without): 5.8 fold
FOLD INCREASE OF IFNγ PRODUCTION, CD45RA− CD3+ CD4+ ([2]; DAY 3 with IL-15 vs without): 3.8 fold
FOLD INCREASE OF IFNγ PRODUCTION, CD45RA− CD3+ CD8+ ([2]; DAY 3 with IL-15 vs without): 11.6 fold
IFNγ production WITH IL15 X3, CD45RA− ([2]; O/N with IL-15 50 ng/ml): 3.8
IFNγ production WITH IL15 X3, CD45RA− CD3+ ([2]; O/N with IL-15 50 ng/ml): 3.8
IFNγ production WITH IL15 X3, CD45RA− CD3+ CD4+ ([2]; O/N with IL-15 50 ng/ml): 3.8
IFNγ production WITH IL15 X3, CD45RA− CD3+ CD8+ ([2]; O/N with IL-15 50 ng/ml): 4.6
FOLD INCREASE OF IFNγ PRODUCTION, CD45RA− ([2]; O/N with IL-15 vs without): 19.2 fold
FOLD INCREASE OF IFNγ PRODUCTION, CD45RA− CD3+ ([2]; O/N with IL-15 vs without): 13.6 fold
FOLD INCREASE OF IFNγ PRODUCTION, CD45RA− CD3+ CD4+ ([2]; O/N with IL-15 vs without): 12.5 fold
FOLD INCREASE OF IFNγ PRODUCTION, CD45RA− CD3+ CD8+ ([2]; O/N with IL-15 vs without): 14.8 fold
IFNγ production W-WO, CD45RA− [2, 9]: 3.6
IFNγ production W-WO, CD45RA− CD3+ [2, 9]: 3.5
IFNγ production W-WO, CD45RA− CD3+ CD4+ [2, 9]: 3.5
IFNγ production W-WO, CD45RA− CD3+ CD8+ [2, 9]: 4.3
% Memory T cells, % CD45RA− ([2]; WITH IL15 PEPX3 72 hours): 84%
% Memory T cells, % CD45RA−CD3+ ([2]; WITH IL15 PEPX3 72 hours): 95.1%
% Memory T cells, % CD45RA−CD3+ CD4+ ([2]; WITH IL15 PEPX3 72 hours): 91.2%
% Memory T cells, % CD45RA−CD3+ CD8+ ([2]; WITH IL15 PEPX3 72 hours): 3.45%
% Memory T cells, % CD45RA− ([2]; WITH IL15 PEPX3 o/n): 97.7%
% Memory T cells, % CD45RA−CD3+ ([2]; WITH IL15 PEPX3 o/n): 94.9%
% Memory T cells, % CD45RA−CD3+ CD4+ ([2]; WITH IL15 PEPX3 o/n): 91%
% Memory T cells, % CD45RA−CD3+ CD8+ ([2]; WITH IL15 PEPX3 o/n): 6.23%
Fold change CD25+ (T cell activation marker) [3, 10]: 13.16
Fold change CD69+ (T cell activation marker) [3, 10]: 26
Fold change HLA-DR+ high (T cell activation marker) [3, 10]: 1.21
Fold change NKG2A+ (T cell exhaustion marker) [3, 10]: 0.77
Fold change PD1+ high (T cell exhaustion marker) [3, 10]: 3.43
Fold change CD25+ (T cell activation marker) ([3]; CD3+ subset, IL-15 o/n): 2.11
Fold change CD69+ (T cell activation marker) ([3]; CD3+ subset, IL-15 o/n): 3.82
Fold change HLA-DR+ high (T cell activation marker) ([3]; CD3+ subset, IL-15 o/n): 1.11
Fold change NKG2A+ (T cell exhaustion marker) ([3]; CD3+ subset, IL-15 o/n): 0.61
Fold change PD1+ high (T cell exhaustion marker) ([3]; CD3+ subset, IL-15 o/n): 1.43
Fold change CD25+ (T cell activation marker) [3, 11]: 9.88
Fold change CD69+ (T cell activation marker) [3, 11]: 27.82
Fold change HLA-DR+ high (T cell activation marker) [3, 11]: 1.22
Fold change NKG2A+ (T cell exhaustion marker) [3, 11]: 2.67
Fold change PD1+ high (T cell exhaustion marker) [3, 11]: 3.41
Fold change CD25+ (T cell activation marker) ([3]; CD4+ subset, IL-15 o/n): 2.12
Fold change CD69+ (T cell activation marker) ([3]; CD4+ subset, IL-15 o/n): 4.48
Fold change HLA-DR+ high (T cell activation marker) ([3]; CD4+ subset, IL-15 o/n): 0.97
Fold change NKG2A+ (T cell exhaustion marker) ([3]; CD4+ subset, IL-15 o/n): 0.39
Fold change PD1+ high (T cell exhaustion marker) ([3]; CD4+ subset, IL-15 o/n): 1.35
Fold change CD25+ (T cell activation marker) [3, 12]: 105
Fold change CD69+ (T cell activation marker) [3, 12]: 6.48
Fold change HLA-DR+ high (T cell activation marker) [3, 12]: 1.61
Fold change NKG2A+ (T cell exhaustion marker) [3, 12]: 1.23
Fold change PD1+ high (T cell exhaustion marker) [3, 12]: 2.97
Fold change CD25+ (T cell activation marker) ([3]; CD8+ subset, IL-15 o/n): 14.27
Fold change CD69+ (T cell activation marker) ([3]; CD8+ subset, IL-15 o/n): 2.10
Fold change HLA-DR+ high (T cell activation marker) ([3]; CD8+ subset, IL-15 o/n): 1.32
Fold change NKG2A+ (T cell exhaustion marker) ([3]; CD8+ subset, IL-15 o/n): 0.73
Fold change PD1+ high (T cell exhaustion marker) ([3]; CD8+ subset, IL-15 o/n): 1.51
Fold change CD127lowCD25+ (Treg) ([3]; IL-15 for 72 hours vs day 0 WO IL15): 7.88
Fold change CD127lowCD25+ (Treg) ([3]; IL-15 o/n vs day 0 WO IL15): 1.85
Fold time change of exhaustion marker NKG2A, CD45RA−CD3+ cells ([3]; IL-15 72 hours): 0.77 fold
Fold time change of exhaustion marker PD-1, CD45RA−CD3+ cells ([3]; IL-15 72 hours): 3.43 fold
Fold increase of activation marker CD25, CD45RA− CD3+ cells [3, 13]: 13.26 fold
Fold increase of activation marker CD69, CD45RA− CD3+ cells [3, 13]: 26 fold
Fold increase of activation marker HLA-DR, CD45RA− CD3+ cells [3, 13]: 1.21 fold
Fold time change of exhaustion marker NKG2A, CD45RA−CD3+ cells ([3]; IL-15 o/n): 0.61 fold
Fold time change of exhaustion marker PD-1, CD45RA−CD3+ cells ([3]; IL-15 o/n): 1.43 fold
Fold increase of activation marker CD25, CD45RA− CD3+ cells [3, 14]: 2.28 fold
Fold increase of activation marker CD69, CD45RA− CD3+ cells [3, 14]: 3.82 fold
Fold increase of activation marker HLA-DR, CD45RA− CD3+ cells [3, 14]: 1.11 fold
